Patent US9180183B2, “Phospholipid drug analogs” (Telormedix SA, priority 2010, dated 2015)
One block for each compound: values may come before it.

How the values were obtained:
[1] = system: human whole blood; assay: Cytokine secretion in human whole blood assay (ELISA); format: cell-based; conditions: for IL-12p40 levels: all donors
Protocol: Before drawing the blood, the compounds were added to 96 well round bottom plates in a 10× diluted sample at 20 ul. The compounds were diluted in RPMI media without serum but with antibiotics. Antibiotics were added at a 10× concentration. After drawing the blood, the whole blood sample was gently mixed to obtain a homogeneous sample, and 180 ul was added to each well.
All compounds were setup in concentrations at 0-0.01-0.03-0.1-0.5-2.0-10.0 micromolar as the final concentration. Vehicle control was DMSO control, where we used the highest concentration used for the compounds. After addition of blood, all plates were gently agitated at 37° C. and 5% CO2 until harvest.
Concentrations of cytokines were determined by ELISA from R&D Systems. The results were analyzed in Graph Pad Prism in order to prepare dose-response curves, and for determination of EC50 values. FACS analysis was made by using Becton-Dickinson FACSDiva software and subsequently illustrated in Graph Pad Prism.

[2] = Plasma stability in rat plasma (first experiment); format: in vitro ADME
Protocol: (§1) A 10 μl of MeOH was added to improve solubility. […] The supernatant fractions were analyzed by LC/MS/MS. […] Percent loss of substrate in incubations was determined to estimate the in vitro half life of the test compound. Samples were analyzed on a UPLC (Waters) interfaced with a Premiere XE Triple Quadrupole (Waters).

[3] = Plasma stability in human plasma (first experiment); format: in vitro ADME
Protocol: as §1

[4] = Plasma stability in rabbit plasma (first experiment); format: in vitro ADME
Protocol: as §1

[5] = Plasma stability in minipig plasma (first experiment); format: in vitro ADME
Protocol: as §1

[6] = HPLC retest of stored compound A samples; format: physicochemical; conditions: for HPLC purity: room temperature, natural light
[7] = system: recombinant protein antigens from Plasmodium falciparum and Mycobacterium ulcerans; assay: Pilot immunization study with adjuvanted protein antigens in mice; format: in vivo; conditions: three s.c. immunizations with 10 nMol adjuvant
Protocol: A pilot immunization study was conducted using Compound A and SC12 adjuvanted protein antigens. The immunization experiments were performed with two recombinant proteins expressed in E. coli. One antigen was derived from the malaria parasite Plasmodium falciparum and the other one from Mycobacterium ulcerans, which cause the ulcerative skin disease Buruli ulcer.

[8] = Stability study of compound A under storage conditions (HPLC); format: physicochemical
[9] = Solubility in organic solvents; format: physicochemical; conditions: methanol, ethanol, dichloromethane, ethyl acetate, acetonitrile, acetone, chloroform
[10] = published data, Clarke et al. 2009; cited from earlier work
[11] = Serum exposure after intravesical chronic treatment in mouse
Protocol: Serum samples were taken at time points: day 0, 2 hours, day 1, 24 hours, and day 6, 2 hours.
Samples were evaporated and re-suspended in 70 microliters of acetonitrile/methanol 1:1.

[12] = system: Cutaneous Squamous Cell Carcinoma (SCC) cell lines SCL-I, SCL-II, SCC-12, SCC-13; assay: Proapoptotic and cytotoxic effects on cutaneous SCC cell lines (real-time cell analysis, microscopy); format: cell-based, human; conditions: cutaneous SCC cell lines
Protocol: SCC cells are grown under standard conditions (10% FBS).
Time and dose dependency of effects on total cell numbers have been investigated by real-time cell analysis, which is based on continuous monitoring of electric conductance in microtiter wells (E-plates, Roche), which corresponds to the cell numbers. […] For these assays 4 cell lines should be used to obtain a representative overview on the effects on SCC cells.

[13] = system: human PBMCs; assay: IL-6 secretion in human PBMCs, two batches of Compound A and SC12; format: cell-based; conditions: PBMCs; 10-1-0,1-0.01 micromolar
[14] = system: AY-27 rat bladder cancer cell-line
[15] = system: HLA-DR+/CD11c+/CD123- mDCs; assay: FACS analysis of myeloid DC activation in whole blood; format: cell-based, human; conditions: 24 hours; 0.1 and 0.5 uM; three donors
Protocol: The FACS analysis for donor 1 and donor 2 was made on another day than donor 3. The compound concentrations were as follows:
The FACS analysis was used to identify whether the test compounds could induce activation of B cells, and two different subsets of dendritic cells, namely the myeloid CD11c+/CD123− DCs and the plasmacytoid CD11c−/CD123+ DCs. The following markers were studied to identify the activation status of the different subsets:
The FACS staining was performed according to the manufacturer's instructions. Lysis of red blood cells was performed before FACS staining in order to minimize auto-florescence. To include as many B cells and DCs in the study as possible the FACS analyses were performed on 500,000 cells in total for each staining. A P1 gate was set only to include relevant cells on FSC vs. SSC (see FIGS. 12-15). The results of the individual analysis were present as Mean Fluorescence Intensity
The analysis of myeloid DCs was based on HLA-DR+/CD11c+/CD123−cells, thus all analyzed cells was included in the HLA-DR+ (P3) gate and CD11c+/CD123− (Q4) gate (see gates in FIGS. 13-15).

[16] = system: PBMCs; assay: IL-6 and TNF-alpha secretion in PBMCs (ELISA), Model 2; format: cell-based, human; conditions: three donors
[17] = system: 73 primary molecular targets (human recombinant receptor types and subtypes or membrane fraction from rodent tissue homogenates); assay: Radioligand binding assay among 73 primary molecular targets; conditions: SC12 at 30 microM
[18] = system: HLA-DR+/CD20+ B cells; assay: FACS analysis of B cell activation in whole blood; format: cell-based, human; conditions: 24 hours; 2 and 10 uM; three donors
[19] = whole blood, 6 hours incubation
[20] = whole blood, 24 hours incubation
[21] = batch CH730/16/8G, solid, external T and light, t = 2 days
[22] = batch CH730/16/8G, solid, external T and light, t = 6 days
[23] = batch CH730/16/8G, solution in CHCl3, RT and light, t = 0
[24] = batch CH730/16/8G, solution in CHCl3, RT and light, t = 1 day
[25] = batch CH730/16/8G, solution in CHCl3, RT and light, t = 5 days
[26] = batch CH730/16/8G, solution in CHCl3, RT and light, t = 7 days
[27] = batch CH730/16/8G, solution in CHCl3, RT and light, t = 11 days
[28] = batch CH730/16/8G, solution in CHCl3, T about 30° C. without light, t = 1 day
[29] = batch CH730/16/8G, solution in CHCl3, external T and light, t = 1 day

Compound: CCCCCCCC/C=C\CCCCCCCC(=O)OCC(COP(=O)(O)OCCNC(=O)c1ccc(Cn2c(=O)[nH]c3c(N)nc(OCCOC)nc32)cc1)OC(=O)CCCCCCC/C=C\CCCCCCCC (stereo not shown) [Compound A, 2-(4-((6-amino-2-(2-methoxyethoxy)-8-oxo-7H-purin-9(8H)-yl)methyl)benzamido)ethyl 2,3-bis(oleoyloxy)propyl phosphate]
- range of IL-6 secretion ([1]; whole blood, three donors): 4000 to 8000 pg/mL
- ranges of IFN-alpha secreted ([1]; whole blood, three donors): 1000 to 2000 pg/mL
- IL-12p40 levels [1, 19]: 8.000 to 12.000 pg/mL
- IL-12p40 levels [1, 20]: 20.000 to 25.000 pg/mL
- stability classification [2]: unstable
- stability classification [3]: unstable
- stability classification [4]: unstable
- stability classification [5]: unstable
- stability (in words) ([6]; at room temperature and/or in the presence of light): not a stable compound
- HPLC purity ([6]; Test date: Jun. 10, 2009): Purity: 57.5%
- HPLC purity ([6]; Test date: Jun. 11, 2009): Purity: 81.4%
- HPLC purity ([6]; Test date: May 20, 2009): Purity: 89.6%
- HPLC purity ([6]; tested Jun. 10, 2009, Retest date: Jun. 16, 2009): Purity: 44.8%
- HPLC purity ([6]; tested Jun. 11, 2009, Retest date: Jun. 18, 2009): Purity: 71.5%
- HPLC purity ([6]; tested May 20, 2009, Retest date: Jun. 12, 2009): Purity: 67.2%
- HPLC purity ([6]; tested May 20, 2009, Retest date: Jun. 17, 2009): Purity: 58.9%
- local side effects [7]: No local side effects
- degradation (in words) ([8]; T>25° C. and in the presence of light): rapid degradation
- HPLC % at RRT = 1 (main peak) [8, 21]: 37.6%
- HPLC % of impurity at RRT = 1.06 [8, 21]: 9.2%
- HPLC % of impurity at RRT = 1.11 [8, 21]: 27.9%
- HPLC % of impurity at RRT = 1.26 [8, 21]: 14.8%
- HPLC % at RRT = 1 (main peak) [8, 22]: 35.4%
- HPLC % of impurity at RRT = 1.06 [8, 22]: 17.8%
- HPLC % of impurity at RRT = 1.14 [8, 22]: 7.2%
- HPLC % of impurity at RRT = 1.17 [8, 22]: 12.6%
- HPLC % of impurity at RRT = 1.28 [8, 22]: 5.5%
- HPLC % at RRT = 1 (main peak) [8, 23]: 81.4%
- HPLC % of impurity at RRT = 1.11 [8, 23]: 8.6%
- HPLC % of impurity at RRT = 1.23 [8, 23]: 4.2%
- HPLC % at RRT = 1 (main peak) [8, 24]: 80.9%
- HPLC % of impurity at RRT = 1.11 [8, 24]: 8.7%
- HPLC % of impurity at RRT = 1.24 [8, 24]: 4.4%
- HPLC % at RRT = 1 (main peak) [8, 25]: 79.3%
- HPLC % of impurity at RRT = 1.10 [8, 25]: 9.9%
- HPLC % of impurity at RRT = 1.24 [8, 25]: 4.2%
- HPLC % at RRT = 1 (main peak) [8, 26]: 80.5%
- HPLC % of impurity at RRT = 1.11 [8, 26]: 8.7%
- HPLC % of impurity at RRT = 1.27 [8, 26]: 3.9%
- HPLC % at RRT = 1 (main peak) [8, 27]: 82.0%
- HPLC % of impurity at RRT = 1.16 [8, 27]: 6.9%
- HPLC % of impurity at RRT = 1.29 [8, 27]: 3.7%
- HPLC % at RRT = 1 (main peak) [8, 28]: 80.7%
- HPLC % of impurity at RRT = 1.11 [8, 28]: 8.6%
- HPLC % of impurity at RRT = 1.27 [8, 28]: 3.8%
- HPLC % at RRT = 1 (main peak) [8, 29]: 80.3%
- HPLC % of impurity at RRT = 1.11 [8, 29]: 8.0%
- HPLC % of impurity at RRT = 1.27 [8, 29]: 3.2%

- solubility in common solvents [9]: not soluble
Compound: COCCOc1nc(N)c2[nH]c(=O)n(Cc3ccc(C(=O)O)cc3)c2n1 [Acid 7, 4-((6-amino-2-(2-methoxyethoxy)-8-oxo-7H-purin-9(8H)-yl)methyl)benzoic acid]

Compound: CCOCc1nc2c(N)nc3ccccc3c2n1CC(C)(C)O [Resiquimod]
- IFN-alpha secreted [10]: < 200 pg/mL

Compound: CC(C)Cn1cnc2c(N)nc3ccccc3c21 [Imiquimod, reference compound]
- induction of DC secreted cytokines (in words) ([1]; supernatant from whole blood cell assays): weak inducer
- IL-6 secretion (in words) ([1]; whole blood, 6 h incubation): low and insignificant amounts of IL-6
- IFN-alpha secretion (in words) [1, 19]: did not induce IFN-alpha secretion
- IL-10 production (in words) [1, 19]: no IL-10 production was seen
- IL-12p40 secretion (in words) [1, 19]: did not induce IL-12p40 secretion
- IL-12p40 secretion (in words) [1, 20]: did not induce IL-12p40
- Imiquimod levels in serum, Mean ± S.D. ([11]; intravesical 0.1%, Day 1, 24 hours, LLOQ 2.5 ng/ml): <LLOQ
- accumulation in serum (in words) ([11]; intravesical chronic treatment, 6 days): no accumulation
- cell numbers (real-time cell analysis, electric conductance) [12]: reduced cell numbers
- IL-6 induction (in words) [13]: only active in inducing IL-6 at the highest concentration
- Range of weight of the rat bladders ([14]; 0.5 ml intravesical instillation (Imiquimod 0.1%, SC12 0.38%) on day 2 and 5, day 12): 0.0814-0.1891 grams
- signs of toxicity (in words) ([14]; intravesical instillation on day 2 and 5): No signs of toxicity
- Tumor free (% of rats) ([14]; of 14 rats per group, day 12): 35.7%
- Tumor free (number of rats) ([14]; of 14 rats per group, day 12): 5
- pT2 Tumor (% of rats) ([14]; of 14 rats per group, day 12): 64.3%
- pT2 Tumor (number of rats) ([14]; of 14 rats per group, day 12): 9
- CD80 expression in mDCs (MFI, in words) [15]: weak expression of CD80 in donor 1 and 2
- induction of IL-6 and TNF-alpha secretion (in words) [16]: weak ability to induce the cytokines
- binding to receptors associated with pain-related syndromes (e.g. adenosine and sodium channel) [17]: shown to bind
- CD40 expression (MFI, in words) [18]: increased expression in all three donors
